Experimental findings from patent publication US20220235065A1 (Epizyme, Inc., priority 2016, published 2022) are described below.

The test system of assay [1] is H3K9me2 in MDA-MB-231 cells. The experiment in a line: MDA-MB-231 H3K9me2 in-cell western assay. The class given is cell-based. The note with it: Homo sapiens, read-out: EHMT2 ICW (IC50 μM). Summed up: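 MDA-MB-231 cells (3,000/well) exposed to compound for two consecutive 48 h periods at 37 °C, then fixed and stained for H3K9me2, with DRAQ5 as DNA stain and infrared read at 700/800 nm. Percent inhibition was set between DMSO and UNC0638 control wells. IC50 came from triplicate dose–response fits with a four-parameter model, top 100%, bottom 0%.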

Assay [2] concerns the target T1, EHMT1 (Homo sapiens, UniProt Q9H9B1).
T1 sequence (Q9H9B1 1-1298): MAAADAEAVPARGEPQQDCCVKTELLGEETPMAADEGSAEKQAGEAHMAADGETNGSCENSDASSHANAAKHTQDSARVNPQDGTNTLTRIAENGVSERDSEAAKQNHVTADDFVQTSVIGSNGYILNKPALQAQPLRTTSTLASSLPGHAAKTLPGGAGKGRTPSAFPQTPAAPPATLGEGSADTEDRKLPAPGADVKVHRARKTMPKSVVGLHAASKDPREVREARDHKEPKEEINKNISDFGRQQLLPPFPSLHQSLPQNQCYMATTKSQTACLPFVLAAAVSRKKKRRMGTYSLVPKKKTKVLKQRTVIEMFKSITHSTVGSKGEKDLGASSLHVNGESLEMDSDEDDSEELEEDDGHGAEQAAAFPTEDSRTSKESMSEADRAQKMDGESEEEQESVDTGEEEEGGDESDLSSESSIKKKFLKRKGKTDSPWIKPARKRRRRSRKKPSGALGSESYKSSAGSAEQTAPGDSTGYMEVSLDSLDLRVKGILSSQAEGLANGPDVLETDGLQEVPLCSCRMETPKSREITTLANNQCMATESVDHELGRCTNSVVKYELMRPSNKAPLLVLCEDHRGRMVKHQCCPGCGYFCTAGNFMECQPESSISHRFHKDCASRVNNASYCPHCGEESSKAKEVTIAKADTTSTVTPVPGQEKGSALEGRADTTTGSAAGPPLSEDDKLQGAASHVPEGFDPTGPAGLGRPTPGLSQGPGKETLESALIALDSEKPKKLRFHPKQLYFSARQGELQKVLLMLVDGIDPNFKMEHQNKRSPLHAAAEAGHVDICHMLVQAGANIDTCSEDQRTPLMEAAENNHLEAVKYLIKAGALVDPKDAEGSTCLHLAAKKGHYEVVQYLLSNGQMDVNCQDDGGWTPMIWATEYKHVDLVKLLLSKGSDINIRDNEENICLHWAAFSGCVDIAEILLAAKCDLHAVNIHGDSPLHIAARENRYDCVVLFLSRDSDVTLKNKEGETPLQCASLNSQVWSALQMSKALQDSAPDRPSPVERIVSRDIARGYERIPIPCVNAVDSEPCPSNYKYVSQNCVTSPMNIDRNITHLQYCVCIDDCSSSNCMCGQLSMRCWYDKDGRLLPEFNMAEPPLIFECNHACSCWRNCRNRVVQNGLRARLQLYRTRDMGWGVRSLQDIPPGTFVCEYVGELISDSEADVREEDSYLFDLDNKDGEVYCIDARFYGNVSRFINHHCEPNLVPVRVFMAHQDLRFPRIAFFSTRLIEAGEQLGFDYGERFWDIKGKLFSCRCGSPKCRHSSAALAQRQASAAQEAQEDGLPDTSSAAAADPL
The assay is described as follows: EHMT1 PEP (EHMT1 peptide enzyme assay). The class given is biochemical. The settings on record: peptide substrate enzyme assay.

By IC50 is commonly meant the concentration at which inhibition is half-maximal.

Turning to `CNC1=Nc2cc(-n3cc(C4CCCN4)cn3)c(OC)cc2C12CCC2` (stereo not shown) [Compound 322], the values for the IC50 in assay [1] and in assay [2] were 0.1 to 1 µM and below 0.1 µM, respectively.
The matching figures for `CNCc1cn(-c2cc(Nc3nc(C)cc(NC)n3)ccc2OC)nc1F` [Compound 323]: 0.1 to 1 µM and below 0.1 µM.
The matching figures for `CNCc1cc(-c2cc(Nc3nc(C)cc(NC)n3)ccc2OC)on1` [Compound 324]: 1 to 10 µM and 0.1 to 1 µM.
For `CNCc1cnn(-c2cc(Nc3nc(C)cc(NC)n3)ccc2C(F)(F)F)c1` [Compound 325] the same measures were 0.1 to 1 µM and below 0.1 µM.
For `CNC1=Nc2cc(-n3cc(C4CCCN4)cn3)c(Cl)cc2C12CCC2` (stereo not shown) [Compound 326], the 50% inhibitory concentration (IC50) in assay [1] and in assay [2] was below 0.1 µM throughout.
With `CNCc1cnn(-c2c(Cl)ccc(Nc3nc(C)cc(NC)n3)c2Cl)c1` [Compound 327], the IC50 in assay [1] and in assay [2] was below 0.1 µM each time.
Take `CNCc1cnn(-c2c(Cl)ccc(Nc3nc(C)cc(NC)n3)c2F)c1` [Compound 328]: the 50% inhibitory concentration (IC50) in assay [1] and in assay [2] was below 0.1 µM each time.
Regarding `CNCc1cnn(-c2c(F)ccc(Nc3nc(C)cc(NC)n3)c2Cl)c1` [Compound 329], the IC50 in assay [1] and in assay [2] was below 0.1 µM each time.
In the case of `CNc1cc(C)nc(Nc2ccc(Cl)c(-n3cc(C4CCCN4)cn3)c2)n1` (stereo not shown) [Compound 330], the IC50 in assay [1] and in assay [2] was below 0.1 µM each time.
Turning to `CNCc1cc(-c2cc(Nc3nc(C)cc(NC)n3)ccc2OC)no1` [Compound 331], the IC50 in assay [1] is 0.1 to 1 µM; in assay [2], below 0.1 µM.
For the compound `CNc1cc(C)nc(Nc2ccc(OC)c(-c3cc4[nH]cc(C)c4cn3)c2)n1` [Compound 386], the IC50 in assay [1] and in assay [2] was below 0.1 µM in each case.
